From patent US7816349B2, “Substituted pyrrolidinones as inhibitors of 11-beta-hydroxysteroid dehydrogenase 1” (Eli Lilly and Company, priority 2006, dated 2010)

Assays:
[1] = system: cortisone conversion to cortisol (11β-HSD1); assay: Acute In Vivo Cortisone Conversion Assay; design: species or system male C57BL/6 mice; conditions: mice, oral dose 10 mg/kg, cortisone challenge s.c. 30 mg/kg, 16 hours post compound dose, serum cortisol
Method: Acute In Vivo Cortisone Conversion Assay
In general, compounds are dosed orally into mice, the mice are challenged with a subcutaneous injection of cortisone at a set timepoint after compound injection, and the blood of each animal is collected some time later. Separated serum is then isolated and analyzed for levels of cortisone and cortisol by LC-MS/MS, followed by calculation of mean cortisol and percent inhibition of each dosing group. Specifically, male C57BL/6 mice are obtained from Harlan Sprague Dawley at average weight of 25 grams. Exact weights are taken upon arrival and the mice randomized into groups of similar weights. Compounds are prepared in 1% w-w HEC, 0.25% w-w polysorbate 80, 0.05% w-w Dow Corning antifoam #1510-US at various doses based on assumed average weight of 25 grams. Compounds are dosed orally, 200 μl per animal, followed by a subcutaneous dose, 200 μl per animal, of 30 mg/kg cortisone at 1 to 24 hours post compound dose. At 10 minutes post cortisone challenge, each animal is euthanized for 1 minute in a CO2 chamber, followed by blood collection via cardiac puncture into serum separator tubes. Once fully clotted, tubes are spun at 2500×g, 4° C. for 15 minutes, the serum transferred to wells of 96-well plates (Corning Inc, Costar #4410, cluster tubes, 1.2 ml, polypropylene), and the plates are frozen at −20° C. until analysis by LC-MS/MS. […]

[2] = molecular target: recombinant human 11β-HSD type 1 enzyme (Homo sapiens, UniProt P28845); assay: 11β-HSD Type 1 Enzyme Assay (NADPH fluorescence); type: biochemical; conditions: three hour incubation at room temperature, read-out: Human 11-βHSD1 IC50
Method: 11β-HSD Type 1 Enzyme Assay
Human 11β-HSD type 1 activity is measured by assaying NADPH production by fluorescence assay. Solid compounds are dissolved in DMSO to a concentration of 10 mM. Twenty microliters of each are then transferred to a column of a 96-well polypropylene Nunc plate where they are further diluted 50-fold followed by subsequent two-fold titration, ten times across the plate with additional DMSO using a Tecan Genesis 200 automated system. Plates are then transferred to a Tecan Freedom 200 system with an attached Tecan Temo 96-well head and an Ultra 384 plate reader. Reagents are supplied in 96-well polypropylene Nunc plates and are dispensed individually into black 96-well Molecular Devices High Efficiency assay plates (40 μL/well capacity) in the following fashion: 9 μL/well of substrate (2.22 mM NADP, 55.5 μM Cortisol, 10 mM Tris, 0.25% Prionex, 0.1% Triton X100), 3 μL/well of water to compound wells or 3 μL to control and standard wells, 6 μL/well recombinant human 11β-HSD type 1 enzyme, 2 μL/well of compound dilutions. For ultimate calculation of percent inhibition, a series of wells are added that represent assay minimum and maximum: one set containing substrate with 667 μM carbenoxolone (background), and another set containing substrate and enzyme without compound (maximum signal). Final DMSO concentration is 0.5% for all compounds, controls and standards. Plates are then placed on a shaker by the robotic arm of the Tecan for 15 seconds before being covered and stacked for a three hour incubation period at room temperature. Upon completion of this incubation, the Tecan robotic arm removes each plate individually from the stacker and places them in position for addition of 5 μL/well of a 250 μM carbenoxolone solution to stop the enzymatic reaction. Plates are then shaken once more for 15 seconds then placed into an Ultra 384 microplate reader (355EX/460EM) for detection of NADPH fluorescence.

[3] = molecular target: T1, 11β-HSD1 in primary human aortic smooth muscle cells (AoSMC) (Homo sapiens, UniProt P28845); assay: Human Aortic Smooth Muscle Cell Assay (cortisone to cortisol conversion); type: cell-based; conditions: AoSMC induced with hTNFα; cortisol measured after 16 hours with cortisone
T1 construct: containing 12 ng/mL hTNFα to induce expression of 11β-HSD1; endogenous in cells; host or cells: primary human aortic smooth muscle cells (AoSMC), induced with hTNFα
Method: Human Aortic Smooth Muscle Cell Assay
Primary human aortic smooth muscle cells (AoSMC) are cultured in 5% FBS growth medium to a passage number of 6, then pelleted by centrifugation and resuspended at a density of 9×10^4 cells/mL in 0.5% FBS assay medium containing 12 ng/mL hTNFα to induce expression of 11β-HSD1. Cells are seeded into 96-well tissue culture assay plates at 100 μL/well (9×10^3 cells/well) and incubated for 48 hours at 37° C., 5% CO2. Following induction, cells are incubated for 4 hours at 37° C., 5% CO2 in assay medium containing test compounds then treated with 10 μL/well of 10 μM cortisone solubilized in assay medium, and incubated for 16 hours at 37° C., 5% CO2. Medium from each well is transferred to a plate for subsequent analysis of cortisol using a competitive fluorescence resonance time resolved immunoassay. […] Higher levels of free cortisol result in diminishing energy transfer from the Europium-IgG to the APC-cortisol complex resulting in less APC fluorescence. Fluorescent intensities for Europium and APC are measured using a LJL Analyst AD. Europium and APC […] is measured using 360 nm excitation and 615 nm and 650 nm emission filters respectively. […] Fluorescent intensities measured for APC are modified by dividing by the Eu fluorescence (APC/Eu). […]

recombinant human 11β-HSD type 1 enzyme, sequence (P28845 whole entry): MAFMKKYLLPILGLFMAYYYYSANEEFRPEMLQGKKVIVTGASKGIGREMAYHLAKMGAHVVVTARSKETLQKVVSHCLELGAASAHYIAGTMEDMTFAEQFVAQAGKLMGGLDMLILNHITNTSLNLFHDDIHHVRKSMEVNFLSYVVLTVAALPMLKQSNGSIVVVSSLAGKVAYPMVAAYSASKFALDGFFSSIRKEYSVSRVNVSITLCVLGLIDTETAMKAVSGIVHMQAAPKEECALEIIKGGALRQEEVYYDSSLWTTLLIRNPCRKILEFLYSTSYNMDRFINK
T1 sequence (P28845 whole entry): as above

IC50 [2] [nM]	IC50 [3] [nM]	Structure (SMILES)	% Inhibition after 16 hours (dose of 10 (mg/kg)) [1] [%]
382		O=C(c1ccc(-c2cc(Cl)c(C[C@@H]3CCN(C4CCC(F)(F)CC4)C3=O)c(Cl)c2)cc1)N1CCS(=O)(=O)CC1 [Example 4, (R)-3-[3,5-Dichloro-4′-(1,1-dioxo-1lamda*6*-thiomorpholine-4-carbonyl)-biphenyl-4-ylmethyl]-1-(4,4-difluoro-cyclohexyl)-pyrrolidin-2-one]	50.2
584	5.5	O=C(c1ccc(-c2cc(Cl)c(C[C@@H]3CCN([C@H]4CC[C@@H](F)CC4)C3=O)c(Cl)c2)cc1)N1CCC(C(F)(F)F)CC1 [Example 9, (R)-3-[3,5-Dichloro-4′-(4-trifluoromethyl-piperidine-1-carbonyl)-biphenyl-4-ylmethyl]-cis-1-(4-fluoro-cyclohexyl)-pyrrolidin-2-one]	
686	55.1	O=C(c1ccc(-c2cc(Cl)c(C[C@@H]3CCN(C4CCC(F)(F)CC4)C3=O)c(Cl)c2)cc1)N1CCC(C(F)(F)F)CC1 [Example 3, (R)-3-[3,5-Dichloro-4′-(4-trifluoromethyl-piperidine-1-carbonyl)-biphenyl-4-ylmethyl]-1-(4,4-difluoro-cyclohexyl)-pyrrolidin-2-one]	60.7
